For assay [1], the system named is Staphylococcus aureus. The experiment in a line: Antibacterial activity against methicillin-resistant Staphylococcus aureus ATCC 29213 assessed as reduction in bacterial count at 6 times MIC incubated for 24 hrs by time kill assay. Format: functional.
Assay [2] relates to Staphylococcus aureus. The experiment in a line: Antibacterial activity against Staphylococcus aureus ATCC 25923 assessed as bacterial growth inhibition incubated for 18 to 24 hrs by NCCLS based assay. It is filed as functional. The settings on record: time 18-24 hrs.
The subject of assay [3] is Staphylococcus aureus. The experiment in a line: Bactericidal activity against Staphylococcus aureus incubated for 24 hrs by time kill assay. It is filed as functional, organism-based.
The test system of assay [4] is Staphylococcus aureus. In words: Bactericidal activity against methicillin-resistant Staphylococcus aureus ATCC 29213 incubated for 24 hrs by time kill assay. Format: functional, organism-based.
Assay [5] relates to Staphylococcus aureus. The experiment in a line: Antibacterial activity against methicillin-resistant Staphylococcus aureus BNCC 337371 assessed as bacterial growth inhibition incubated for 18 to 24 hrs by NCCLS based assay. Format: functional. The settings on record: time 18-24 hrs.
In assay [6] the test system is Enterococcus faecalis. In words: Antibacterial activity against Enterococcus faecalis assessed as bacterial growth inhibition incubated for 18 to 24 hrs by NCCLS based assay. The note with it: time 18-24 hrs. It is filed as functional.
In assay [7] the test system is Escherichia coli. The experiment in a line: Antibacterial activity against Escherichia coli CICC 10389 assessed as bacterial growth inhibition incubated for 18 to 24 hrs by NCCLS based assay. It is filed as functional. The settings on record: time 18-24 hrs.
Assay [8] relates to Staphylococcus epidermidis. In words: Antibacterial activity against methicillin-resistant Staphylococcus epidermidis ATCC 51625 assessed as bacterial growth inhibition incubated for 18 to 24 hrs by NCCLS based assay. The note with it: time 18-24 hrs. Format: functional.
The test system of assay [9] is Pasteurella multocida. The experiment in a line: Antibacterial activity against Pasteurella multocida CVCC 1659 assessed as bacterial growth inhibition incubated for 18 to 24 hrs by NCCLS based assay. It is filed as functional. The note with it: time 18-24 hrs.
Assay [10] concerns Streptococcus agalactiae. The experiment in a line: Antibacterial activity against Streptococcus agalactiae assessed as bacterial growth inhibition incubated for 18 to 24 hrs by NCCLS based assay. The settings on record: time 18-24 hrs. Format: functional.
Assay [11] has as its system Staphylococcus aureus. In words: Antibacterial activity against Staphylococcus aureus assessed as reduction in bacterial count at 6 times MIC incubated for 24 hrs by time kill assay. Format: functional.

Each structure is given as a SMILES string. ≈ marks a conversion by molar mass, not a printed value. Some results are limits rather than exact numbers.

On to `C=C[C@]1(C)C[C@@H](OC(=O)CSc2ncnc(NCCN(C)C)n2)[C@]2(C)[C@H](C)CC[C@]3(CCC(=O)[C@H]32)[C@@H](C)[C@@H]1O`, for which the results for the “log(activity)” value in assay [1] and in assay [11] were 0.32 and 2.14, respectively. Besides, the minimal inhibitory concentration (MIC) was 0.031 µg/mL (≈ 0.0554 µM) in assay [2]; 0.063 µg/mL (≈ 0.113 µM) in assay [5]; 16 µg/mL (≈ 28.6 µM) in assay [6]; at least 64 µg/mL in assay [7]; 0.125 µg/mL (≈ 0.223 µM) in assay [8]; at least 64 µg/mL in assay [9]. In addition, in [10], the MIC is 0.063 µg/mL (≈ 0.113 µM). In addition, the Activity result in assay [3] and in assay [4] was “Dose-Dependent Effect” throughout.
